According to patent US20100068747A1, “Generic Assay for Monitoring Endocytosis” (Evotec Technologies GmbH, priority 2005, published 2010):
“Also recorded” adds a separate entry of the source.

Assays:
[1] = tested on: CHO/ETAR cells; assay: Lectin labeling of fixed cells, CHO/ETAR; assay type: cell-based; settings: TRITC-lectin 10 nM and 20 nM
Protocol: (§1) Lectin labeling of fixed cells was conducted as follows: To detach confluent cells in order to prepare experiments for internalization studies, cells were always treated with EDTA solution instead of trypsin solution. For all seeding, washing, and labeling steps in 96-well plates a working volume of 100 μl per well was assessed. Cells were seeded out into a 96-well plate at different concentrations. U2OS/ETAR-GFP suspensions were adjusted to yield 2*10^4 cells/well, both of the CHO cell lines must be at 2.5*10^4 cells/well. Cells became confluent after 24 hours of incubation. In the following, they were washed with phosphate buffered saline (PBS) and fixed with 3% PFA for 20 minutes at RT. Then, cells were washed again with PBS and incubated in 10 nM and 20 nM solutions of each TRITC-lectin candidate in PBS, respectively. Again, cells were washed with PBS to remove excess lectin, and wells were refilled with PBS for analysis. For specificity controls, lectin solutions were incubated for 30 minutes prior to the application with an excess of the monosaccharide that represents the respective glyco-epitope.
(§2) The following microscopy and image analysis techniques were employed. When utilizing the epifluorescence microscope magnifications were adjusted according to the purpose of observation, e.g. single cell vs. cell collective. Concerning the filters U-MNU was used for Hoechst, U-MSWB for GFP, and U-N41007 for TRITC detection. Hoechst images were taken at 50 ms exposure time, GFP images at 100 to 200 ms and TRITC images needed 500 to 1000 ms. Overlay images were assembled with AnalySIS and tuned in color intensity to obtain the desired color contrast. Images taken to compare two experimental conditions, e.g. control vs. stimulus, featured identical exposure parameters. If possible, well areas were chosen that reflect similar states of confluence. Utilizing the Opera confocal fluorescence imager, the instrument was calibrated running standard methods for skew cropping (spatial camera alignments) and camera intensity normalization.

[2] = tested on: CHO/PAR-2 cells; assay: Lectin labeling of fixed cells, CHO/PAR-2; assay type: cell-based; settings: TRITC-lectin 10 nM and 20 nM
Protocol: as §1, §2

[3] = tested on: U2OS/ETAR-GFP cells; assay: Lectin labeling of live cells, U2OS/ETAR-GFP; assay type: cell-based, human
[4] = biological target: T1, endothelin A receptor (ETAR) (Homo sapiens, UniProt P25101); assay: Lectin labeling of live cells with receptor targeted stimulation, CHO/ETAR; assay type: cell-based, Chinese hamster; settings: endothelin 1 stimulation
T1 construct: expressed in transfected cells; host or cells: CHO-K1 cell line clone #19, prepared in-house
T1 sequence (P25101 21-427): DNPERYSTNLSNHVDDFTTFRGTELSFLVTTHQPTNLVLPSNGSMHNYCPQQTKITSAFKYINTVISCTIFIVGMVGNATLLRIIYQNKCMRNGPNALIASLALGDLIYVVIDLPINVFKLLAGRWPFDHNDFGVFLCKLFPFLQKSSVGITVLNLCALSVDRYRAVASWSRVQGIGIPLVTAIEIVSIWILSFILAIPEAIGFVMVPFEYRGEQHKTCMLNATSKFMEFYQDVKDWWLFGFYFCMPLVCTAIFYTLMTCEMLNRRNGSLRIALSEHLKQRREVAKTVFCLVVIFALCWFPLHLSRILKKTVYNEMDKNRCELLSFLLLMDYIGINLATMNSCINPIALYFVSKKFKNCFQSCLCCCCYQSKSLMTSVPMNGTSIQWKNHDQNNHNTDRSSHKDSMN
Protocol: With regard to lectin labeling of live cells with receptor target stimulation, lyophilized PAR-2 peptide was resuspended in 20 mM HEPES with 0.1% BSA at 4 mM. […] The live cell labeling protocol was applied as described above. Additionally, endothelin and PAR-2 agonist peptide were added to the assay medium employed after the lectin labeling step at concentrations of 40 nM and 100 μM, respectively. For controls, same amount of resuspension liquid without agonist was supplemented. Instantly, fluorescence signals were monitored.

succinylated Triticum vulgaris (wheat germ) agglutin [sWGA]
Staining of CHO/ETAR [1]: cell surface | Staining of CHO/PAR-2 [2]: signals clearly marking individual cells; also recorded: cell surface | delay in spot formation ([3]; pH 6.8, U2OS cells): 20 min | spot formation at increased pH ([3]; pH 8.0, U2OS cells): accelerated | early spot formation, time after stimulation [4]: 20 to 30 min
